# Tests used:
# [1] = test system: cultured human mast cells (CHMC); assay: CHMC low cell density ionomycin activation: tryptase assay; assay type: cell-based; settings: low cell density CHMC, tryptase, 3 pt, read-out: LD Tryptase, CHMC, Iono, 3 pt
# [2] = test system: cultured human mast cells (CHMC); assay: CHMC low cell density IgE activation: tryptase assay; assay type: cell-based; settings: low cell density CHMC, IgE activation, tryptase
# Method in brief: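 CHMC at 1000–1500 cells/well were preincubated 1 hr at 37° C., stimulated with anti-IgE for 30 minutes at 37° C., then pelleted. Supernatant tryptase was measured with a fluorogenic substrate after 30 min at room temperature, against un-stimulated control wells.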
# [3] = Homo sapiens, Mast cell, 3 pt, read-out: LD Tryptase, CHMC, IgE, 3 pt
# [4] = 3 pt, read-out: LD Tryptase, CHMC, IgE, 3 pt
# [5] = 8 pt, read-out: LD Tryptase, CHMC, IgE, 8 pt
# [6] = Homo sapiens, Mast cell, 8 pt, read-out: LD Tryptase, CHMC, IgE, 8 pt
Compound,"IC50 ([1]; Homo sapiens, Mast cell)","IC50 [2, 3]",IC50 [1],"IC50 [2, 4]","IC50 [2, 5]","IC50 [2, 6]"
"COc1cc(OC)cc(N(C)c2nc(Nc3ccc(OC)c(Cl)c3)ncc2F)c1 [Compound 404, N2-(3-Chloro-4-methoxyphenyl)-N4-(3,5-dimethoxyphenyl)-5-fluoro-N4-methyl-2,4-pyrimidinediamine]",> 10 µM,> 10 µM,–,–,–,–
COc1cc(OC)cc(N(C)c2nc(Nc3ccc(Cl)c(OC)c3)ncc2F)c1 [Compound 405],> 10 µM,< 10 µM,–,–,–,–
"CNC(=O)c1cc2cccc(Nc3ncc(F)c(N(C)c4cc(OC)cc(OC)c4)n3)c2[nH]1 [Compound 406, N4-(3,5-Dimethoxyphenyl)-5-fluoro-N4-methyl-N2-[2-(N-methylamino)carbonylindol-7-yl]-2,4-pyrimidinediamine]",> 10 µM,< 10 µM,–,–,–,–
"COc1cc(Nc2ncc(F)c(Nc3ccc(OC(C)(C)C(=O)O)c(Cl)c3)n2)cc(OC)c1 [Compound 409, N4-[3-Chloro-4-(hydroxycarbonyl-1,1-dimethylmethyleneoxy)phenyl]-N2-(3,5-dimethoxyphenyl)-5-fluoro-2,4-pyrimidinediamine]",–,–,> 10 µM,< 10 µM,< 10 µM,–
"CCOC(=O)C(C)(C)Oc1ccc(Nc2nc(Nc3ccc(OC)c(Cl)c3)ncc2F)cc1Cl [Compound 410, N4-[3-Chloro-4-(ethoxycarbonyl-1,1-dimethylmethyleneoxy)phenyl]-N2-(3-chloro-4-methoxyphenyl)-5-fluoro-2,4-pyrimidinediamine]",–,–,< 10 µM,< 10 µM,< 10 µM,–
CN(c1ccc2c(c1)OCCO2)c1nc(Nc2cccc(-c3cnco3)c2)ncc1F [Compound 411],> 10 µM,< 10 µM,–,–,–,< 10 µM
CN(c1ccc2c(c1)OCCO2)c1nc(Nc2cccc(-c3ncco3)c2)ncc1F [Compound 412],< 10 µM,< 10 µM,–,–,–,–
COc1ccc(Nc2nc(Nc3cc(C)cc(C)c3)ncc2F)cc1OC [Compound 413],> 10 µM,< 10 µM,–,–,–,< 10 µM
"COc1cc(Nc2ncc(F)c(Nc3ccc(OC)c(OC)c3)n2)cc(OC)c1 [Compound 414, N2-(3,5-Dimethoxyphenyl)-N4-(3,4-dimethoxyphenyl)-5-fluoro-2,4-pyrimidinediamine]",> 10 µM,< 10 µM,–,–,–,< 10 µM
"CCOC(=O)c1cc2cccc(Nc3ncc(F)c(Nc4ccc(OC)c(OC)c4)n3)c2[nH]1 [Compound 415, N4-(3,4-Dimethoxyphenyl)-N2-[2-(ethoxycarbonyl)indol-7-yl]-5-fluoro-2,4-pyrimidinediamine]",> 10 µM,< 10 µM,–,–,–,< 10 µM
CN(c1ccc2c(c1)OCCO2)c1nc(Nc2ccc(-c3ncco3)cc2)ncc1F [Compound 416],> 10 µM,< 10 µM,–,–,–,–
COC(=O)CN(c1ccc2c(c1)OCCO2)c1nc(Cl)ncc1F [Compound 418],> 10 µM,> 10 µM,–,–,–,–
"COc1ccc(Nc2nc(Nc3cccc(-c4cnco4)c3)ncc2F)cc1OC [Compound 419, N4-(3,4-Dimethoxyphenyl)-5-fluoro-N2-[3-(oxazol-5-yl)phenyl]-2,4-pyrimidinediamine]",> 10 µM,< 10 µM,–,–,–,< 10 µM
"COC(=O)CN(c1ccc2c(c1)OCCO2)c1nc(Nc2ccc3cc[nH]c3c2)ncc1F [Compound 420, N4-(3,4-Ethylenedioxyphenyl)-5-fluoro-N2-(indol-6-yl)-N4-(methoxycarbonylmethyl)-2,4-pyrimidinediamine]",> 10 µM,< 10 µM,–,–,–,–
"CNC(=O)c1cc2cccc(Nc3ncc(F)c(Nc4ccc(OC)c(OC)c4)n3)c2[nH]1 [Compound 421, N4-(3,4-Dimethoxyphenyl)-5-fluoro-N2-[2-(N-methylaminocarbonyl)indol-7-yl]-2,4-pyrimidinediamine]",> 10 µM,< 10 µM,–,–,–,–
"COc1ccc(Nc2nc(Nc3ccc(-c4cnco4)cc3)ncc2F)cc1OC [Compound 422, N4-(3,4-Dimethoxyphenyl)-5-fluoro-N2-[4-(oxazol-5-yl)phenyl]-2,4-pyrimidinediamine]",> 10 µM,< 10 µM,–,–,–,< 10 µM
COc1ccc(Nc2nc(Nc3ccc(-c4ncco4)cc3)ncc2F)cc1OC [Compound 424],> 10 µM,< 10 µM,–,–,–,–
"COc1ccc(Nc2ncc(F)c(Nc3ccc(OC)c(OC)c3)n2)cc1Cl [Compound 425, N2-(3-Chloro-4-methoxyphenyl)-N4-(3,4-dimethoxyphenyl)-5-fluoro-2,4-pyrimidinediamine]",> 10 µM,< 10 µM,–,–,–,< 10 µM
CC(=O)N1CCN(c2cccc(Nc3ncc(F)c(Nc4ccc5c(c4)OCCO5)n3)c2)CC1 [Compound 426],> 10 µM,< 10 µM,–,–,–,< 10 µM
"CC(=O)N1CCN(c2ccc(Nc3ncc(F)c(Nc4ccc5c(c4)OCCO5)n3)cc2)CC1 [Compound 427, N2-[4-(4-Acetylpiperazino)phenyl]-N4-(3,4-ethylenedioxyphenyl)-5-fluoro-2,4-pyrimidinediamine]",> 10 µM,< 10 µM,–,–,–,< 10 µM
"COc1cc(Nc2nc(Nc3cccc(N4CCN(C(C)=O)CC4)c3)ncc2F)cc(OC)c1 [Compound 428, N2-[3-(4-Acetylpiperazino)phenyl]-N4-(3,5-dimethoxyphenyl)-5-fluoro-2,4-pyrimidinediamine]",> 10 µM,< 10 µM,–,–,–,–
"COc1ccc(Nc2nc(Nc3cccc(N4CCN(C(C)=O)CC4)c3)ncc2F)cc1OC [Compound 429, N2-[3-(4-Acetylpiperazino)phenyl]-N4-(3,4-dimethoxyphenyl)-5-fluoro-2,4-pyrimidinediamine]",> 10 µM,< 10 µM,–,–,–,–
"COc1ccc(Nc2nc(Nc3ccc(N4CCN(C(C)=O)CC4)cc3)ncc2F)cc1OC [Compound 430, N2-[4-(4-Acetylpiperazino)phenyl]-N4-(3,4-dimethoxyphenyl)-5-fluoro-2,4-pyrimidinediamine]",> 10 µM,< 10 µM,–,–,–,–
CC(=O)N1CCN(c2cccc(Nc3ncc(F)c(Nc4ccc5c(c4)OC(F)(F)C(F)(F)O5)n3)c2)CC1 [Compound 431],–,–,> 10 µM,< 10 µM,< 10 µM,–
CC(=O)N1CCN(c2ccc(Nc3ncc(F)c(Nc4ccc5c(c4)OC(F)(F)C(F)(F)O5)n3)cc2)CC1 [Compound 432],–,–,> 10 µM,< 10 µM,–,–
COc1ccc(N(C)c2nc(Nc3cc(C)cc(C)c3)ncc2F)cc1OC [Compound 433],> 10 µM,< 10 µM,–,–,–,–
COc1cc(Nc2ncc(F)c(N(C)c3ccc(OC)c(OC)c3)n2)cc(OC)c1 [Compound 434],> 10 µM,< 10 µM,–,–,–,–
"CCOC(=O)c1cc2cccc(Nc3ncc(F)c(N(C)c4ccc(OC)c(OC)c4)n3)c2[nH]1 [Compound 435, N4-(3,4-Dimethoxyphenyl)-N2-[2-(ethoxycarbonyl)indol-7-yl]-5-fluoro-N4-methyl-2,4-pyrimidinediamine]",> 10 µM,< 10 µM,–,–,–,–
"COc1ccc(N(C)c2nc(Nc3ccc4cc[nH]c4c3)ncc2F)cc1OC [Compound 436, N4-(3,4-Dimethoxyphenyl)-5-fluoro-N2-(indol-6-yl)-N4-methyl-2,4-pyrimidinediamine]",> 10 µM,< 10 µM,–,–,–,–
COc1cc(Nc2nc(Nc3ccc(N4CCN(C(C)=O)CC4)cc3)ncc2F)cc(OC)c1 [Compound 437],> 10 µM,< 10 µM,–,–,–,–

# From patent US20220073536A1 (Rigel Pharmaceuticals, Inc., priority 2003, published 2022)
